From patent US9464064B2, “HCV helicase inhibitors and methods of use thereof” (University of Kansas, priority 2011, dated 2016)
Starred links: 1 amine or outer side, 2 acyl side, 3 side chain; linkers in the order of their positions; H or OH if unused. Positions of bridges follow the written chain, without caps; N, C: chain ends. Non-standard residues stand in square brackets, D forms with d. Residues, ends and D or L forms follow the SMILES beside them. Chains are numbered I, II in the order given. Actinocin(9to1) = Cc1c2oc3c(C)ccc(C(=O)[*:1])c3nc-2c(C(=O)[*:2])c(N)c1=O; NMeV = CN[C@H](C(=O)O)C(C)C; Sar = CNCC(=O)O

Molecular target: T1, HCV NS3 helicase NS3h_1b(con1) (Hepatitis C virus genotype 1b, UniProt Q9WMX2)
T1 construct: truncated C-terminally His-tagged NS3 proteins lacking the N-terminal protease, called NS3h; His-tag (C); made in house
T1 sequence (Q9WMX2 1192-1657): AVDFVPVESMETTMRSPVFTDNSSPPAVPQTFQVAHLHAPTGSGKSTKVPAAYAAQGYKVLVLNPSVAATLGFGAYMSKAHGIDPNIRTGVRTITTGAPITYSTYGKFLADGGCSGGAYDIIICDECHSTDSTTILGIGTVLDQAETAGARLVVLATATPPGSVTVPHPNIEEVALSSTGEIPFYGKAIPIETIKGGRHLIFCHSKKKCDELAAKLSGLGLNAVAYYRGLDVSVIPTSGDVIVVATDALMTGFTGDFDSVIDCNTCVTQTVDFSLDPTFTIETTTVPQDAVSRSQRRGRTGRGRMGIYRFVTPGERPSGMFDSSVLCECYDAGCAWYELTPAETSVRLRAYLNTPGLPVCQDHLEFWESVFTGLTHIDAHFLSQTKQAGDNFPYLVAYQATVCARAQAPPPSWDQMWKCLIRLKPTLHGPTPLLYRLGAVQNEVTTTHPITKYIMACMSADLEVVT
Assay: MBHA screen of NCI mechanistic set library at 20 μM (percent inhibition, compound interference)
Assay type: biochemical
Details: compounds at 20 μM; for Inh. (%) (Inhibition): calculated from Equation 1
Description: All molecular beacon-based helicase assays (MBHAs) were performed according to known methods (Belon & Frick (2008) supra; Belon & Frick (2009) supra). […] In each flat, black 384-well plate, 56 compounds were tested, in triplicate, along with three negative controls (DMSO only), three positive controls (500 nM dT20), and two wells with no enzyme. Fluorescence was read before ATP (F0) addition and 30 minutes after ATP was added to 1 mM (F30) using a Tecan Infinite M200 fluorescence microplate reader with excitation and emission wavelengths set to 643 and 670 nm, respectively. Percent inhibition was calculated with equation 1, and compound interference in the MBHA was calculated with equation 2.
In Equations 1 and 2, Fc0 is the fluorescence of the reactions containing the test compound before adding ATP, Fc30 is the fluorescence of the test compound reaction 30 minutes after adding ATP. F(−)0 is the average of three DMSO-only negative control reactions before adding ATP and F(−)30 is the average of three DMSO-only reactions 30 minutes after adding ATP.
To identify HCV helicase inhibitors, the MBHA was first used to screen the National Cancer Institute Developmental Therapeutics Program's mechanistic set library. In total, 827 compounds (at 20 μM) were screened using a MBHA with a DNA substrate (Table 1). Compounds were ranked by their ability to inhibit HCV helicase-catalyzed DNA unwinding as calculated from Equation 1.
Compound interference in the MBHA was evaluated by comparing the fluorescence of reactions containing each compound to the fluorescence of DMSO-only negative controls before ATP was added.

[1] = MBHA with DNA substrate, assay interference calculated with Equation 2
[2] = assay interference calculated with Equation 2 (fluorescence vs DMSO-only controls before ATP)

SMILES | Int.* (Ratio) (Interference) [1] | Inh. (%) (Inhibition) (MBHA with DNA substrate) | Inh. (%) (Inhibition) (MBHA with a DNA substrate) | Int.* (Ratio) (Interference) [2]
O=C(O)c1ccc(NC(c2ccccc2)c2ccc3cccnc3c2O)cc1 (stereo not shown) [Compound 1011] | 0.87 Ratio | 3.7% |  | 
NC1(C(=O)O)CCCC1 [Compound 1026] |  |  | 9.0% | 0.90 Ratio
CC(C)(Br)C(=O)C(Br)Br [Compound 1027] |  |  | 7.0% | 0.91 Ratio
c1coc(CNc2ncnc3[nH]ncc23)c1 [Compound 1620] |  |  | −3.0% | 1.06 Ratio
CN(C)C(=S)SSC(=S)N(C)C [Compound 1771] | 0.98 Ratio | 0.2% |  | 
C1CCNCC1.S=C(S)N1CCCCC1 [Compound 1906] | 1.17 Ratio | −1.6% |  | 
Cc1cc(O)c(C(C)C)cc1C1(c2cc(C(C)C)c(O)cc2C)OC(=O)c2ccccc21 [Compound 2186] |  |  | −22.0% | 1.01 Ratio
CC(C)C1(Cl)CCC2C3(C)CCCC(C)(C(=O)O)C3CC(Cl)C2(Cl)C1Cl (stereo not shown) [Compound 2979] | 1.00 Ratio | −12.5% |  | 
Cc1c2oc3c(C)ccc(C(=O)N[C@@H]4C(=O)N[C@H](C(C)C)C(=O)N5CCC[C@H]5C(=O)N(C)CC(=O)N(C)[C@@H](C(C)C)C(=O)O[C@@H]4C)c3nc-2c(C(=O)N[C@@H]2C(=O)N[C@H](C(C)C)C(=O)N3CCC[C@H]3C(=O)N(C)CC(=O)N(C)[C@@H](C(C)C)C(=O)O[C@@H]2C)c(N)c1=O [Compound 3053] (I: T[dV]P[Sar][NMeV] / II: T[dV]P[Sar][NMeV]; ester I:1-I:C, II:1-II:C; linker I:N-II:N via Actinocin(9to1)) | 0.55 Ratio | 67.5% |  | 
O=Nc1ccc(O)c2ncccc12 [Compound 3852] | 1.01 Ratio | −15.7% |  | 
c1ccc(-c2cccc(-c3ccccn3)n2)nc1 [Compound 3905] | 0.92 Ratio | 5.7% |  | 
C1COCCN1.S=C(S)N1CCOCC1 [Compound 4114] |  |  | 7.2% | 1.15 Ratio
CC1=CC(=O)c2ccccc2C1=O [Compound 4170] |  |  | −27.3% | 1.09 Ratio
Cc1ccc2ccc3ccc(C)nc3c2n1 [Compound 4280] | 1.01 Ratio | −9.2% |  | 
COC1CC(OC2CCC3(C=O)C4CCC5(C)C(C6=CC(=O)OC6)CCC5(O)C4CCC3(O)C2)OC(C)C1OC1OC(CO)C(O)C(O)C1O (stereo not shown) [Compound 4320] | 0.95 Ratio | −12.6% |  | 
C=C(C)[C@@H]1CC[C@]2(CO)CC[C@]3(C)[C@H](CC[C@@H]4[C@@]5(C)CC[C@H](O)C(C)(C)[C@@H]5CC[C@]43C)[C@@H]12 [Compound 4644] | 1.32 Ratio | −13.9% |  | 
Nc1nncs1 [Compound 4728] | 1.07 Ratio | 5.9% |  | 
O=[N+]([O-])c1ccc(N=Nc2c(O)[nH]c3ccccc23)c([N+](=O)[O-])c1 [Compound 4810] | 1.01 Ratio | −15.4% |  | 
CCN(CC)C(=S)S [Compound 4857] | 1.07 Ratio | −8.0% |  | 
COc1ccc(O)cc1 [Compound 4960] |  |  | −4.5% | 0.90 Ratio
CO[C@H]1[C@@H](O)[C@@H](C)O[C@H](O[C@H]2[C@H](Oc3cccc4c(O)c5c(=O)oc6ccc(C)c7c(=O)oc(c34)c5c67)O[C@H](C)[C@H](O)[C@@H]2O)[C@@H]1O [Compound 5159] | 1.03 Ratio | 38.6% |  | 
Nc1nc(N)c(N=Nc2ccccc2)c(=O)[nH]1 [Compound 5200] |  |  | 7.0% | 1.02 Ratio
Nc1ccccc1N [Compound 5354] |  |  | 10.6% | 0.97 Ratio
O=C1c2cccc(O)c2C(=O)c2c(O)cccc21 [Compound 7210] | 0.97 Ratio | −0.5% |  | 

SMILES | Int.* (Ratio) (Interference) [1] | Inh. (%) (Inhibition) (MBHA with DNA substrate) | Inh. (%) (Inhibition) (MBHA with a DNA substrate) | Int.* (Ratio) (Interference) [2]
Cc1nc(N)nc(N)c1-c1ccc(Cl)c(Cl)c1 [Compound 7364] | 0.86 Ratio | 20.2% |  | 
CC1OC(O[C@@H]2C=C3CC[C@@H]4[C@H](CC[C@]5(C)[C@@H](c6ccc(=O)oc6)CC[C@]45O)[C@@]3(C)CC2)C(O)C(O)C1O (stereo partly shown) [Compound 7521] | 0.94 Ratio | 5.5% |  | 
COC1CC(O[C@H]2CC[C@]3(C=O)[C@H]4CC[C@]5(C)[C@@H](C6=CC(=O)OC6)CC[C@]5(O)[C@@H]4CC[C@]3(O)C2)OC(C)C1O (stereo partly shown) [Compound 7522] |  |  | −24.0% | 0.97 Ratio
COC1CC(OC2CCC3(C=O)C4CCC5(C)C(C6=CC(=O)OC6)CCC5(O)C4CCC3(O)C2)OC(C)C1OC1OC(COC2OC(CO)C(O)C(O)C2O)C(O)C(O)C1O (stereo not shown) [Compound 7530] |  |  | −19.7% | 0.98 Ratio
CC(=O)O[C@H]1C[C@H](O[C@H]2[C@@H](O)C[C@H](O[C@H]3[C@@H](O)C[C@H](O[C@H]4CC[C@@]5(C)[C@H](CC[C@@H]6[C@@H]5CC[C@]5(C)[C@@H](C7=CC(=O)OC7)CC[C@]65O)C4)O[C@@H]3C)O[C@@H]2C)OC(C)[C@H]1O[C@@H]1O[C@H](CO)[C@@H](O)[C@H](O)[C@H]1O (stereo partly shown) [Compound 7532] |  |  | −3.4% | 0.89 Ratio
Nc1ccc(N)c2c1C(=O)c1ccccc1C2=O [Compound 7833] | 1.07 Ratio | −18.7% |  | 
C1CN1c1nc(N2CC2)nc(N2CC2)n1 [Compound 9706] | 0.98 Ratio | −10.9% |  | 
CCCCCCCC/C=C\CCCCCCCC(=O)O [Compound 9856] | 0.84 Ratio | 12.6% |  | 
COc1ccc2nc(C)cc(NCCCCCCCCCNc3cc(C)nc4ccc(OC)cc34)c2c1 [Compound 10010] | 0.23 Ratio | 56.7% |  | 
O=C1c2ccccc2C(=O)c2c(O)c(O)cc(O)c21 [Compound 10447] | 1.06 Ratio | 5.6% |  | 
CC(C)=CC1C(C(=O)O)C1(C)C (stereo not shown) [Compound 11779] | 0.89 Ratio | 16.8% |  | 
CC1=C(O)c2ccccc2C(=O)C1=O [Compound 11897] | 1.05 Ratio | 2.5% |  | 
CC(C)=CCC1=C(O)c2ccccc2C(=O)C1=O [Compound 11905] |  |  | −4.3% | 0.80 Ratio
COc1cccc2c1cc([N+](=O)[O-])c1c(C(=O)O)cc3c(c12)OCO3 [Compound 11926] | 1.14 Ratio | −12.8% |  | 
CN(C)CCOc1ccc(I)cc1Cc1ccccc1.Cl [Compound 11930] | 1.10 Ratio | −18.9% |  | 
O=c1c(Br)c(-c2ccccc2)[nH]c2ccccc12 [Compound 12825] | 0.95 Ratio | 4.4% |  | 
Nc1ccc2c(c1)S(=O)(=O)c1cc(N)ccc1-2 [Compound 13966] | 1.13 Ratio | −14.1% |  | 
Cc1cc2cc3cc(C)c(N)cc3nc2cc1N [Compound 13973] | 0.28 Ratio | 31.8% |  | 
CCN(CC)CCCC(C)Nc1c2ccc(Cl)cc2nc2ccc(OC)cc12.Cl.Cl (stereo not shown) [Compound 14229] | 1.08 Ratio | 55.1% |  | 
CCN(CC)CCNc1ccc(C)c2sc3ccccc3c(=O)c12.Cl [Compound 14574] | 0.85 Ratio | 30.3% |  | 
CC1=CC(O)C(O)C2(C)C1CC1OC(=O)C(O)C3C(C)C(O)C4(O)OCC13C42 (stereo not shown) [Compound 14974] | 0.99 Ratio | 20.9% |  | 
CC[C@](C)(O)C(=O)O[C@H]1C(=O)O[C@@H]2C[C@H]3C(C)=C[C@H](O)[C@@H](O)[C@]3(C)[C@H]3[C@@]4(O)OC[C@]32[C@@H]1[C@@H](C)[C@H]4O [Compound 14975] |  |  | −20.8% | 1.03 Ratio
O=[N+]([O-])[O-].O=[N+]([O-])[O-].O=[N+]([O-])[O-].[Ga+3] [Compound 15200] | 0.75 Ratio | 53.4% |  | 
